# Reference: ChEMBL document CHEMBL1126173, “Molecular recognition of amiloride analogs: a molecular electrostatic potential analysis. 1. Pyrazine ring modifications” (J Med Chem, 1992)
# Experiments:
# Conditions in all cases: rana ridibundus
# [1] = Blocking time for inhibition of epithelial sodium channels- NA+/H+ antiporter, Na+/ca+2 exchanger, Na+/ca+2 channels, K+ channel, nicotinic acetylcholine receptor and Na+/K+ ATPase
# [2] = Inhibitory activity against epithelial sodium channels- NA+/H+ antiporter, Na+/ca+2 exchanger, Na+/ca+2 channels, K+ channel, nicotinic acetylcholine receptor and Na+/K+ ATPase
# [3] = Inhibitory activity against epithelial sodium channels- NA+/H+ antiporter, Na+/ca+2 exchanger, Na+/ca+2 channels, K+ channel, nicotinic acetylcholine receptor and Na+/K+ ATPase (microscopic dissociation constant); type: ADME
# [4] = Inhibitory activity against epithelial sodium channels- NA+/H+ antiporter, Na+/ca+2 exchanger, Na+/ca+2 channels, K+ channel, nicotinic acetylcholine receptor and Na+/K+ ATPase(microscopic dissociation constant)
Structure (SMILES),Block time [1] [ms],Kon [2] [M⁻¹ s⁻¹],Koff [3] [s⁻¹],Koff [4] [s⁻¹]
Nc1nc(N)c(C(=O)NC(N)N)nc1I,57,1.143e+07,17.41,
Nc1nc(N)c(C(=O)NC(N)N)nc1F,31,1.354e+07,32.2,
Nc1cnc(C(=O)NC(N)N)c(N)n1,6,1.447e+07,176.25,
Nc1nc(Cl)c(Cl)nc1C(=O)NC(N)N,7,5.16e+06,151.1,
Nc1ncc(Cl)nc1C(=O)NC(N)N,92,3.32e+06,10.89,
Nc1nc(N)c(C(=O)NC(N)N)nc1Br,179,1.419e+07,,5.58
Nc1nc(N)c(C(=O)NC(N)N)nc1Cl,255,1.317e+07,3.93,
